“And” between values parts separate entries of the source, which are not always exact repeats. Identical values can stand only once.
Experiments:
[1] = target: T1, HIV-1 reverse transcriptase (Human immunodeficiency virus type 1 group M subtype B, UniProt P04585); experiment: HIV-1 reverse transcriptase activity, ELISA method; format: biochemical; settings: for HIV-1 RT inhibition: drug concentration fixed at 6 μM; for HIV-1 RT inhibition activity compared with the corresponding metal complex (1j, 1k): free-base porphyrins
T1 construct: treatment of HIV-1 RT in Lysis buffer (2 ng, 128.7 μL) with Complex 1j
Procedure: HIV-1 reverse transcriptase activities were measured by an ELISA method (see Eberle et al, J. Virol. Methods, 40:347-356 (1992) performed by incubating the enzyme with digoxigenin-labeled deoxyuridin-5′-triphosphate (dUTP) and the biotin-labeled analogue during reverse transcription starting from the template/primer hybrid poly(A)•oligo(dT)15. After reverse transcription, the newly synthesized DNA was immobilized onto streptavidin-coated ELISA wells, and the incorporation of the dioxigenin-labeled dUTP was assayed by chemiluminescence method. For example, treatment of HIV-1 RT in Lysis buffer (2 ng, 128.7 μL) with Complex 1j (1.3 μL of […] stock solution) dissolved in TBS at 37° C. produced significant RT activity inhibition (˜95%) after 30 min incubation.

[2] = system: Human Hepatocellular Carcinoma (HepG2); experiment: MTT cytotoxicity, HepG2; format: cell-based; settings: growth inhibition
Excerpt: (§1) Human promyelocytic leukemia (HL-60), human hepatocellular carcinoma (HepG2), Human cervix epitheloid carcinoma cells (HeLa) and human oral epidermoid carcinoma cells (KB-3-1), were obtained from American Type Culture Collection (ATCC) (Rockville, Md.). The multi-drug-resistant variant KB-V1 cell line was obtained by stepwise selections for vinblastine resistance as described by Shen et al., J. Biol. Chem. 261:7762-7770 (1986)], and was generously provided by Dr Michael Gottesman (NIH, Bethesda, Md.). Human nasopharyngeal carcinoma cells (SUNE1 and its cisplatin resistance variant, CNE1) were derived from poorly differentiated NPC in Chinese patients as described by Gu et al., Chin. J. Cancer 2:270-272 (1983), and were generously provided by Dr S. W. Tsao (The University of Hong Kong, Hong Kong, PRC). Cell culture flasks and 96 well microtitre plates were from Nalge Nunc hit. Culture medium, other medium constituents and phosphate buffered saline (PBS) were obtained from Gibco BRL (Rockville, Md.). Cell Proliferation Kit I (MTT) was purchased from Roche (Mannheim, Germany).
(§2) The anti-cancer activities of the gold(III) porphyrin complexes were evaluated toward some established human cancer cell lines: promyelocytic leukemia (HL-60), hepatocellular carcinoma (HepG2), cervix epitheloid carcinoma (HeLa), epidermoid carcinoma (KB-3-1) and its multi-drug resistant variant (KB-V1), nasopharyngeal carcinoma (SUNE1) and its cisplatin-resistant variant (CNE1). The experiments were carried out by following the MTT procedure (see Mosmann et al., J. Immunol. Methods 65:55-63 (1983). The IC50 values of the gold(III) porphyrin complexes together with that of cisplatin, and KAuCl4 are provided in Table 4a; and the IC50 values of the gold(III) Schiff-base and bis(pyridyl)carboxamide complexes are shown in Table 4b. The cytotoxicity profiles of some selected gold(III) porphyrin complexes toward SUNE1 and its cisplatin-resistant variant CNE1 are also shown in FIG. 7.

[3] = system: Human Nasopharyngeal Carcinoma (cisplatin resistance, CNE1); experiment: MTT cytotoxicity, CNE1; format: cell-based; settings: for IC50: MTT, growth inhibition, cisplatin resistant
Excerpt: (§3) Human promyelocytic leukemia (HL-60), human hepatocellular carcinoma (HepG2), Human cervix epitheloid carcinoma cells (HeLa) and human oral epidermoid carcinoma cells (KB-3-1), were obtained from American Type Culture Collection (ATCC) (Rockville, Md.). […] Cell culture flasks and 96 well microtitre plates were from Nalge Nunc hit. Culture medium, other medium constituents and phosphate buffered saline (PBS) were obtained from Gibco BRL (Rockville, Md.). Cell Proliferation Kit I (MTT) was purchased from Roche (Mannheim, Germany).

[4] = system: Human Nasopharyngeal Carcinoma (SUNE1); experiment: MTT cytotoxicity, SUNE1; format: cell-based; settings: for IC50: MTT, growth inhibition
Excerpt: as §3

[5] = system: Human Oral Epidermoid Carcinoma (multi-drug resistance, KB-V-1); experiment: MTT cytotoxicity, KB-V-1; format: cell-based; settings: for IC50: MTT, growth inhibition, multi-drug resistant
Excerpt: as §1
The anti-cancer activities of the gold(III) porphyrin complexes were evaluated toward some established human cancer cell lines: promyelocytic leukemia (HL-60), hepatocellular carcinoma (HepG2), cervix epitheloid carcinoma (HeLa), epidermoid carcinoma (KB-3-1) and its multi-drug resistant variant (KB-V1), nasopharyngeal carcinoma (SUNE1) and its cisplatin-resistant variant (CNE1).

[6] = system: Human Cervix Epitheloid Carcinoma (HeLa); experiment: MTT cytotoxicity, HeLa; format: cell-based; settings: for IC50: MTT, growth inhibition
Excerpt: as §3

[7] = Electrochemical measurements (cyclic voltammetry); format: physicochemical; settings: for Couple I (first reduction couple) / Couple II (second reduction couple): cyclic voltammetry, 0.1 M nBu4NPF6, glassy carbon, vs Cp2Fe^+/0; for ΔE1o (E^0Y − E^0H), couple I / ΔE2^0 (E^0Y − E^0H), couple II: relative to Y=H (Complex 1a)
Procedure: Electrochemical measurements. Electrochemical measurements were performed at room temperature after purging with nitrogen using 0.1 M tetrabutylammonium hexafluorophosphate (TBAP)/acetonitrile as supporting electrolyte. The working electrode was a glassy carbon (Atomergic Chemetal V25, geometric area of 0.35 cm^2) electrode and the counter electrode was platinum gauze. A nonaqueous Ag/AgNO3 (0.1 M in acetonitrile) reference electrode was contained in a separate compartment connected to the test solution via fine sintered glass disks. The ferrocenium/ferrocene couple was used as the internal standard. The redox properties of the gold(III) porphyrin complexes in non-aqueous medium (CH2Cl2 with 0.1 M nBu4NPF6) have been studied by cyclic voltammetry with glassy carbon and platinum as the working and counter electrodes, respectively. […] The effect of para-substitution on the electrochemical potentials has been examined by Hammett correlation analysis.

[8] = system: Human Promyelocytic Leukemia (HL-60); experiment: MTT cytotoxicity, HL-60; format: cell-based; settings: growth inhibition
Excerpt: as §1, §2

[9] = system: Human Oral Epidermoid Carcinoma (KB-3-1); experiment: MTT cytotoxicity, KB-3-1; format: cell-based; settings: for IC50: MTT, growth inhibition
Excerpt: as §3

calf thymus DNA = experiment: UV-vis absorption titration with calf thymus DNA; format: binding; settings: for hypochromicity / intrinsic binding constant (Kb): Tris buffer
Procedure: The calf thymus DNA was purchased from Sigma-Aldrich Chemical Co. and was purified by phenol-chloroform extraction. The DNA was dissolved in buffer (5 mM Tris, 5 mM NaCl, pH 7.2). The concentration (per base pair) of calf thymus DNA was determined spectrophotometrically on the basic of ε260, 13,200 M^−1cm^−1bp.
Absorption Titration. The binding interaction of the gold(III) porphyrins to duplex DNA has been studied by UV-vis spectroscopy.
where [ctDNA] is the concentration of DNA, Δεap═|εA−εB| in which εA=Aobs/[complex], and Δε=|εB−εF|. εB and εF correspond to the extinction coefficient of DNA-bound gold(III) porphyrin and the free gold(III) porphyrins, respectively.
The effect of temperature on the intrinsic binding constants was investigated. Using the van't Hoff equation (2): […]

| Compound | IC50 [2] | IC50 ratio [cisplatin/gold (III) porphyrin complexes] CNE1 [3] | IC50 [3] | IC50 ratio [cisplatin/gold (III) porphyrin complexes] SUNE1 [4] | IC50 [4] | IC50 [5] | IC50 ratio [cisplatin/gold (III) porphyrin complexes] HeLa [6] | IC50 [6] | IC50 [8] | IC50 [9] | also measured |
| --- | --- | --- | --- | --- | --- | --- | --- | --- | --- | --- | --- |
| [Au+].[Cl-].c1ccc(P(c2ccccc2)c2ccccc2)cc1 [[(Ph3P)Au^ICl]] |  |  |  |  |  |  |  |  |  |  | HIV-1 RT inhibition [1]: 43% |
| O=S(=O)(O)c1ccc(-c2c3nc(c(-c4ccc(S(=O)(=O)O)cc4)c4ccc([nH]4)c(-c4ccc(S(=O)(=O)O)cc4)c4nc(c(-c5ccc(S(=O)(=O)O)cc5)c5ccc2[nH]5)C=C4)C=C3)cc1 [[H2TPPS]^4−, meso-tetrakis(4-sulfonatophenyl)porphyrin] |  |  |  |  |  |  |  |  |  |  | HIV-1 RT inhibition activity compared with the corresponding metal complex (1j, 1k) [1]: substantially lower HIV-1 RT inhibition activities |
| Clc1ccc(-c2c3nc(c(-c4ccc(Cl)cc4)c4ccc([n-]4)c(-c4ccc(Cl)cc4)c4nc(c(-c5ccc(Cl)cc5)c5ccc2[n-]5)C=C4)C=C3)cc1.[Au+3].[Cl-] [Complex 1e] | 920 nM | 99.5 | 410 nM | 37.1 | 340 nM | 230 nM | 16.2 | 690 nM | 870 nM | 500 nM | IC50 ratio [cisplatin/gold (III) porphyrin complexes] KB-V1 [5]: 20.4; Couple I (first reduction couple) [7]: −0.96 V; Couple II (second reduction couple) [7]: −1.44 V; ΔE1o (E^0Y − E^0H), couple I [7]: +0.44 V; ΔE2^0 (E^0Y − E^0H), couple II [7]: +0.44 V; IC50 ratio [cisplatin/gold (III) porphyrin complexes] KB-3-1 [9]: 26.4 |
| Brc1ccc(-c2c3nc(c(-c4ccc(Br)cc4)c4ccc([n-]4)c(-c4ccc(Br)cc4)c4nc(c(-c5ccc(Br)cc5)c5ccc2[n-]5)C=C4)C=C3)cc1.[Au+3].[Cl-] [Complex 1d] | 1210 nM | 41.6 | 980 nM | 17.0 | 740 nM | 640 nM | 12.6 | 890 nM | 1120 nM | 1290 nM | IC50 ratio [cisplatin/gold (III) porphyrin complexes] KB-V1 [5]: 8.96; Couple I (first reduction couple) [7]: −0.97 V; Couple II (second reduction couple) [7]: −1.45 V; ΔE1o (E^0Y − E^0H), couple I [7]: +0.03 V; ΔE2^0 (E^0Y − E^0H), couple II [7]: +0.03 V; IC50 ratio [cisplatin/gold (III) porphyrin complexes] KB-3-1 [9]: 10.23 |
| Cc1cn(C2CC(N=[N+]=[N-])C(CO)O2)c(=O)[nH]c1=O (stereo not drawn) [AZT, 3′-azido-2′,3′-dideoxythymidine] |  |  |  |  |  |  |  |  |  |  | inhibition at 0.008 µM ([1]; AZT 8 nM alone, read-out: HIV-1 RT enzyme inhibition, alone): 17 to 39%; IC50 ([1]; ELISA, mean ± SE of at least three determinations, read-out: IC50 HIV-1 RT): 69 ± 8 nM |
| N.N.[Cl][Pt][Cl] [Pt(NH3)2Cl2, reference compound] | 13500 nM |  | 40800 nM |  | 12600 nM | 10200 nM |  | 11200 nM | 16800 nM | 13200 nM |  |
| COc1ccc(-c2c3nc(c(-c4ccc(OC)cc4)c4ccc([n-]4)c(-c4ccc(OC)cc4)c4nc(c(-c5ccc(OC)cc5)c5ccc2[n-]5)C=C4)C=C3)cc1.[Au+3].[Cl-] [Complex 1c] | 760 nM | 53.0 | 770 nM | 18.5 | 680 nM |  | 17.0 | 660 nM | 880 nM |  | Couple I (first reduction couple) [7]: −1.02 V; Couple II (second reduction couple) [7]: −1.51 V; ΔE1o (E^0Y − E^0H), couple I [7]: −0.02 V; ΔE2^0 (E^0Y − E^0H), couple II [7]: −0.02 V |
| C[n+]1ccc(-c2c3nc(c(-c4cc[n+](C)cc4)c4ccc([nH]4)c(-c4cc[n+](C)cc4)c4nc(c(-c5cc[n+](C)cc5)c5ccc2[nH]5)C=C4)C=C3)cc1.[Cl-].[Cl-].[Cl-].[Cl-].[Zn] [[Zn^II(TMPyP)]Cl4] |  |  |  |  |  |  |  |  |  |  | HIV-1 RT inhibition [1]: 32% |
| COc1cc(-c2c3nc(c(-c4cc(OC)c(OC)c(OC)c4)c4ccc([n-]4)c(-c4cc(OC)c(OC)c(OC)c4)c4nc(c(-c5cc(OC)c(OC)c(OC)c5)c5ccc2[n-]5)C=C4)C=C3)cc(OC)c1OC.[Au+3].[Cl-] [Complex 1f] | 1830 nM | 55.9 | 730 nM | 18.5 | 680 nM | 710 nM | 16.5 | 680 nM | 740 nM | 870 nM | IC50 ratio [cisplatin/gold (III) porphyrin complexes] KB-V1 [5]: 5.62; IC50 ratio [cisplatin/gold (III) porphyrin complexes] KB-3-1 [9]: 15.1 |
| CCc1c(CC)c2[n]3c1C=c1c(CC)c(CC)c4[n]1[Au]31[n]3c(c(CC)c(CC)c3C=c3c(CC)c(CC)c([n]31)=C2)C=4 [Complex 1h] |  |  |  |  |  |  |  |  |  |  | hypochromicity (calf thymus DNA; 291.4 K): 30.1%; intrinsic binding constant (Kb) (calf thymus DNA; 291.4 K): 4.14 × 10^6 dm^3mol^−1; hypochromicity (calf thymus DNA; 296.8 K): 29.2%; intrinsic binding constant (Kb) (calf thymus DNA; 296.8 K): 2.73 × 10^6 dm^3mol^−1; hypochromicity (calf thymus DNA; 302.2 K): 28.0%; intrinsic binding constant (Kb) (calf thymus DNA; 302.2 K): 1.51 × 10^6 dm^3mol^−1; hypochromicity (calf thymus DNA; 305.5 K): 26.1%; intrinsic binding constant (Kb) (calf thymus DNA; 305.5 K): 1.27 × 10^6 dm^3mol^−1; hypochromicity (calf thymus DNA; 311.2 K): 24.4%; intrinsic binding constant (Kb) (calf thymus DNA; 311.2 K): 0.96 × 10^6 dm^3mol^−1; ΔS° (calf thymus DNA; binding to calf thymus DNA, van't Hoff analysis): −17.3 calmol^−1K^−1 and −17.3 ± 0.7 calmol^−1K^−1; ΔG° (298 K) (calf thymus DNA; binding to calf thymus DNA, van't Hoff analysis, 298 K): −8.2 ± 0.7 |
| C[n+]1ccc(-c2c3nc(c(-c4cc[n+](C)cc4)c4ccc([nH]4)c(-c4cc[n+](C)cc4)c4nc(c(-c5cc[n+](C)cc5)c5ccc2[nH]5)C=C4)C=C3)cc1 [[H2TMPyP]^4+, Meso-tetrakis(N-methylpyridinium-4-yl)porphyrin] |  |  |  |  |  |  |  |  |  |  | HIV-1 RT inhibition activity compared with the corresponding metal complex (1j, 1k) [1]: substantially lower HIV-1 RT inhibition activities |
| CCCC[N+](CCCC)(CCCC)CCCC.[Au+3].[Cl-].[Cl-].[Cl-].[Cl-] [nBu4N[AuCl4], Tetrabutylammonium tetrachloroaurate, reference compound] | 11200 nM |  | 11500 nM |  | 9940 nM |  |  | 8410 nM | 9710 nM | 10300 nM |  |

From patent publication US20040063681A1, “Methods for using gold (III) complexes as anti-tumor and anti-HIV agents” (priority 2002, published 2004)
